Measurements published in patent US6716851B2, “Substituted 2-aryl-4-arylaminopyrimidines and analogs as activators or caspases and inducers of apoptosis and the use thereof” (Cytovia, Inc., priority 2000, dated 2004).

Columns and labels:
[1] = test system: T-47D cells; assay: Caspase cascade activation (N-(Ac-DEVD)-N'-ethoxycarbonyl-R110 fluorogenic substrate) in T-47D cells; type: cell-based, Human; conditions: 48 h incubation
In short: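 Cells (0.65×10^6/ml) exposed 48 h at 37 °C to compound (0.016-10 μM final), then lysed with 14 μM DEVD-R110 substrate buffer (PIPES pH 7.2, DTT, lysolecithin) for 3 h at room temperature. Net fluorescence (485/530 nm) relative to control; EC50 by sigmoidal dose-response.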

[2] = test system: MCF-7 cells; assay: Cell proliferation assay (GI50) in MCF-7 cells; type: cell-based; conditions: Homo sapiens, MCF7; MCF-7, 48 h
Method: [Worded in the source for another cell line; this cell line is reported under the same test.] T-47D cells were grown and harvested as in Example 221. An aliquot of 90 μl of cells (2.2×10^4 cells/ml) was added to a well of a 96-well microtiter plate containing 10 μl of a 10% DMSO in RPMI-1640 media solution containing 1 nM to 100 μM of 4-(3-methoxyanilino)-2-(2-pyridinyl)-6-(trifluoromethyl)pyrimidine (0.1 nM to 10 μM final). An aliquot of 90 μl of cells was added to a well of a 96-well microtiter plate containing 10 μl of a 10% DMSO in RPMI-1640 media solution without compound as the control sample for maximal cell proliferation (AMax). The samples were mixed by agitation and then incubated at 37° C. for 48 h in a 5% CO2-95% humidity incubator. After incubation, the samples were removed from the incubator and 20 μl of CellTiter 96 AQueous One Solution Cell Proliferation^TM reagent (Promega) was added. The samples were mixed by agitation and incubated at 37° C. for 2-4 h in a 5% CO2-95% humidity incubator. Using an absorbance plate reader (Model 1420 Wallac Instruments), an initial reading (T=0) was made approximately 1-2 min after addition of the solution, employing absorbance at 490 nm. This determines the possible background absorbance of the test compounds. No absorbance for 4-(3-methoxyanilino)-2-(2-pyridinyl)-6-(trifluoromethyl)pyrimidine was found at 490 nm. After the 2-4 h incubation, the samples were read for absorbance as above (ATest). […]

- EC50 ([1]; Homo sapiens, T47D, caspase activation potency, read-out: T47 EC50): 433 nM
- GI50 [2]: 100 nM
SMILES: COc1cccc(Nc2cc(C(F)(F)F)nc(-c3ccccn3)n2)c1 [Compound A, 4-(3-methoxyanilino)-2-(2-pyridinyl)-6-(trifluoromethyl)pyrimidine]
- T47 Ratio 48 hr ([1]; caspase activity: ratio of net RFU of test compound to control): 29.3
